In PubChem BioAssay (NCI):
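Briefly, cells in 96-well plates were exposed to five compound concentrations for 48 h, and endpoints were estimated by linear interpolation. The concentration for 50% growth inhibition is given as GI50. TGI denotes the concentration required for complete inhibition of growth.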

What was measured:
Assay in all cases: inhibition of tumour cell growth, NCI panel, 48 h
[1] = test system: OVCAR-8 ovarian
[2] = test system: COLO 205 colon
[3] = test system: HCT-15 colon
[4] = test system: T-47D breast
[5] = test system: BT-549 breast
[6] = test system: SNB-75 CNS
[7] = test system: K-562 leukemia
[8] = test system: ACHN renal
[9] = test system: OVCAR-4 ovarian
[10] = test system: KM12 colon
[11] = test system: 786-0 renal
[12] = test system: SR leukemia
[13] = test system: A498 renal
[14] = test system: SK-MEL-28 melanoma
[15] = test system: NCI-H460 lung
[16] = test system: SNB-19 CNS
[17] = test system: HOP-62 NSCLC
[18] = test system: LOX IMVI melanoma
[19] = test system: UACC-62 melanoma
[20] = test system: HOP-92 NSCLC
[21] = test system: CCRF-CEM leukemia
[22] = test system: TK-10 renal
[23] = test system: UO-31 renal
[24] = test system: EKVX NSCLC
[25] = test system: SF-268 CNS
[26] = test system: IGROV1 ovarian
[27] = test system: M14 melanoma
[28] = test system: RPMI-8226 leukemia
[29] = test system: PC-3 prostate
[30] = test system: SF-539 CNS
[31] = test system: HCT-116 colon
[32] = test system: A549 NSCLC
[33] = test system: CAKI-1 renal
[34] = test system: RXF 393 renal
[35] = test system: HS 578T breast
[36] = test system: U251 CNS
[37] = test system: MDA-MB-231 breast
[38] = test system: MDA-MB-435
[39] = test system: HT29 colon
[40] = test system: SW-620 colon
[41] = test system: SK-MEL-5 melanoma
[42] = test system: OVCAR-5 ovarian
[43] = test system: DU-145 prostate
[44] = test system: SF-295 CNS
[45] = test system: HCC-2998 colon
[46] = test system: SK-MEL-2 melanoma
[47] = test system: UACC-257 melanoma
[48] = test system: NCI/ADR-RES ovarian
[49] = test system: MALME-3M melanoma
[50] = test system: NCI-H226 lung
[51] = test system: HL-60(TB) leukemia
[52] = test system: SN12C renal
[53] = test system: SK-OV-3 ovarian

COc1ccc(N2CCN(C3=C(Cl)C(=O)c4ncccc4C3=O)CC2)cc1
GI50 [1]: 4.87 µM
TGI [1]: 17.9 µM
GI50 [2]: 2.01 µM
TGI [2]: 4.04 µM
GI50 [3]: 2.66 µM
TGI [3]: 11.3 µM
GI50 [4]: 1.78 µM
TGI [4]: 4.26 µM
GI50 [5]: 4.23 µM
TGI [5]: 14.1 µM
GI50 [6]: 14.3 µM
TGI [6]: 28.8 µM
GI50 [7]: 3.03 µM
TGI [7]: 12 µM
GI50 [8]: 1.78 µM
TGI [8]: 3.37 µM
GI50 [9]: 2.18 µM
TGI [9]: 5.36 µM
GI50 [10]: 18.4 µM
TGI [10]: 34.7 µM
GI50 [11]: 15.9 µM
TGI [11]: 29.5 µM
GI50 [12]: 2.27 µM
TGI [12]: 6.59 µM
GI50 [13]: 15 µM
TGI [13]: 29.1 µM
GI50 [14]: 3.8 µM
TGI [14]: 13.2 µM
GI50 [15]: 5.86 µM
TGI [15]: 19.9 µM
GI50 [16]: 16.9 µM
TGI [16]: 32.9 µM
GI50 [17]: 19.1 µM
TGI [17]: 38 µM
GI50 [18]: 1.75 µM
TGI [18]: 3.56 µM
GI50 [19]: 5.99 µM
TGI [19]: 19.3 µM
GI50 [20]: 1.49 µM
TGI [20]: 3.03 µM
GI50 [21]: 2.8 µM
TGI [21]: > 100 µM
GI50 [22]: 4.11 µM
TGI [22]: 11.6 µM
GI50 [23]: 2 µM
TGI [23]: 6.83 µM
GI50 [24]: 2.45 µM
TGI [24]: 7.05 µM
GI50 [25]: 19.2 µM
TGI [25]: 50.1 µM
GI50 [26]: 3.25 µM
TGI [26]: 11.6 µM
GI50 [27]: 3.04 µM
TGI [27]: 10.5 µM
GI50 [28]: 2.69 µM
TGI [28]: 7.32 µM
GI50 [29]: 13.8 µM
TGI [29]: 29.1 µM
GI50 [30]: 7.66 µM
TGI [30]: 21.2 µM
GI50 [31]: 1.92 µM
TGI [31]: 3.85 µM
GI50 [32]: 15.9 µM
TGI [32]: 35.2 µM
GI50 [33]: 4.72 µM
TGI [33]: 17.1 µM
GI50 [34]: 2.61 µM
TGI [34]: 8.37 µM
GI50 [35]: 14.1 µM
TGI [35]: 39 µM
GI50 [36]: 10.7 µM
TGI [36]: 24.1 µM
GI50 [37]: 1.66 µM
TGI [37]: 3.26 µM
GI50 [38]: 1.94 µM
TGI [38]: 3.68 µM
GI50 [39]: 4.71 µM
TGI [39]: 18.2 µM
GI50 [40]: 1.63 µM
TGI [40]: 3.79 µM
GI50 [41]: 12.8 µM
TGI [41]: 25.5 µM
GI50 [42]: 16.2 µM
TGI [42]: 30.3 µM
GI50 [43]: 5.93 µM
TGI [43]: 18.4 µM
GI50 [44]: 13.9 µM
TGI [44]: 28.3 µM
GI50 [45]: 11.7 µM
TGI [45]: 26.5 µM
GI50 [46]: 12 µM
TGI [46]: 25.4 µM
GI50 [47]: 2.86 µM
TGI [47]: 8.41 µM
GI50 [48]: 6.74 µM
TGI [48]: 28.6 µM
GI50 [49]: 2.06 µM
TGI [49]: 6.05 µM
GI50 [50]: 16.2 µM
TGI [50]: 35.9 µM
GI50 [51]: 1.48 µM
TGI [51]: 4.46 µM
GI50 [52]: 11.1 µM
TGI [52]: 25.6 µM
GI50 [53]: 12.2 µM
TGI [53]: 25.2 µM
